Reference: patent publication US8916540B2, “Antibiotic compositions and related screening methods” (Academia Sinica, priority 2008, dated 2014)

What was measured:
[1] = tested on: Clostridium difficile; assay: Minimal inhibitory concentration (MIC) determination; assay type: cell-based
[2] = tested on: Citrobacter freundii; conditions: literature citation 28; cited from earlier work
[3] = biological target: PBP2a from Enterococcus faecalis; assay: Fluorescence anisotropy direct binding assay; conditions: FA direct binding, 100 nM F-Moe, 10 mM Tris pH 8.0, 100 mM NaCl; read-out: FA_KD
Experimental: Fluorescence anisotropy measurements were carried out in triplicates in the wells of 384-well plates using a laser fluorimetry equipped with a 488 nm laser (IsoCyte, Blueshift Biotech, Inc., Sunnyvale, Calif., USA). Various buffers, salts, pH values, and divalent cations (Ca^++, Mg^++, Co^++) were optimized for fluorescence anisotropy measurements. […] The scanning focus was above the plate bottom to avoid detection interferences. Data analysis was performed with the proprietary software, BlueImage (Blueshift Biotech Inc). Fluorescence anisotropy values (A) were calculated using the equation: A=(/∥−G*/⊥)/(/∥+2G*/⊥), where /∥ is the fluorescence intensity of emitted light parallel to excitation, /⊥ is the fluorescence intensity of emitted light perpendicular to excitation, and G is the […] that corrects for instrument bias. The G factor is experimentally determined for each run using the probe-only well as the basal an isotropy.
For direct binding assay, the initial condition contained 40 μl of 100 nM F-Moe in 10 mM Tris, pH 8.0, 100 mM NaCl. After a small volume of PBP stock was added, the anisotropy change was measured after a 5-minute equilibration. We assume that the direct titration follows a simple binding equilibrium between Ligand (L) and Receptor (R)
[formula] […]

[4] = tested on: Pseudomonas aeruginosa; conditions: literature citation 28; cited from earlier work
[5] = biological target: PBP2a from Enterococcus faecalis; assay: SPR moenomycin binding to immobilized full-length PBP; conditions: steady-state affinity, average values, read-out: SPR_KD

Substance: Moenomycin A [Compound 1]
- MIC [1]: >160 µM
- Reported values MIC [2]: 352 µM
- Kd [3]: 276 ± 14 nM
- Reported values MIC [4]: 55 to 110 µM
- Kd [5]: 619 nM
